The values below come from publication PMC6444347 (Nature chemistry, 2019).

Positions count from the first letter of the chain named.

The target of assay [1] is T1, PBP4 (Staphylococcus aureus, UniProt P72355).
T1 sequence (P72355 25-431): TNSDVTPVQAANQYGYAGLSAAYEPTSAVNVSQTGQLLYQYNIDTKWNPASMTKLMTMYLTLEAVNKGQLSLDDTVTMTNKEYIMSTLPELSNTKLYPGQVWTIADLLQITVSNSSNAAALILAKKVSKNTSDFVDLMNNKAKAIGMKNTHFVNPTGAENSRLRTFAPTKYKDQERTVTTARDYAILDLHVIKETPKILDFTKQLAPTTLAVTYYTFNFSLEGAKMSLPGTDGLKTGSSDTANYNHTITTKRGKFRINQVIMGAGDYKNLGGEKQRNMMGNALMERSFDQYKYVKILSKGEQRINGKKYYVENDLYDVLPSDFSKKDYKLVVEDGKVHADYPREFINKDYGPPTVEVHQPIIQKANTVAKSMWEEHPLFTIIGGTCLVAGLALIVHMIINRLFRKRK
As to the kind of experiment: fluorogenic D,D-transpeptidation assay with Rf470DL, dose-response. It is filed as biochemical.

For assay [2], the target named is T2, PBP4 (Staphylococcus aureus, UniProt A0A0H2WY27).
T2 sequence (A0A0H2WY27 25-431): T1 sequence (P72355 25-431) with L210H
The experiment in a line: Nitrocefin hydrolysis. It is filed as biochemical.

By IC50 is commonly meant the point on the concentration scale where inhibition reaches its midpoint. Lower therefore signals greater potency. Regarding `CO[C@@]1(NC(=O)Cc2cccs2)C(=O)N2C(C(=O)O)=C(COC(N)=O)CS[C@@H]21` [Cefoxitin], the IC50 on PBP4 [1] was around 2.34 µM.
As to `O=C(Cc1cccs1)N[C@@H]1C(=O)N2C(C(=O)O)=C(/C=C/c3ccc([N+](=O)[O-])cc3[N+](=O)[O-])CS[C@H]12` [Nitrocefin], at PBP4 [2], the “Nitrocefin hydrolysis (β-lactamase activity) competition assay” value was “in the presence of Cefoxitin or Carbenicillin, Nitrocefin hydrolysis was strongly inhibited”.
